Reference: patent publication US5834461A, “Tricyclic benzazepine vasopressin antagonists” (American Cyanamid Company, priority 1997, dated 1998)

Assays:
[1] = system: vasopressin V1; assay: Vasopressin V1 Antagonist Activity in Conscious Rats (vasopressin vasopressor response); format: in vivo, rat (spontaneously hypertensive rats)
Summary of the method: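 Conscious rats had the ventral caudal tail artery cannulated into the lower abdominal aorta under local procaine anesthesia, plus a caudal vein cannula for intravenous dosing. Pulsatile blood pressure was recorded via a Statham P23Db transducer. Vasopressor responses to vasopressin injections were measured before and after compound dosing, with percent antagonism calculated relative to the pre-drug response taken as 100%.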

[2] = target: vasopressin V1 receptor (rat liver plasma membranes) (Rattus norvegicus, UniProt P30560); assay: Binding Assay to Rat Hepatic V1 Receptors; details: rat hepatic V1
Chain of vasopressin V1 receptor (rat liver plasma membranes) (P30560 whole entry): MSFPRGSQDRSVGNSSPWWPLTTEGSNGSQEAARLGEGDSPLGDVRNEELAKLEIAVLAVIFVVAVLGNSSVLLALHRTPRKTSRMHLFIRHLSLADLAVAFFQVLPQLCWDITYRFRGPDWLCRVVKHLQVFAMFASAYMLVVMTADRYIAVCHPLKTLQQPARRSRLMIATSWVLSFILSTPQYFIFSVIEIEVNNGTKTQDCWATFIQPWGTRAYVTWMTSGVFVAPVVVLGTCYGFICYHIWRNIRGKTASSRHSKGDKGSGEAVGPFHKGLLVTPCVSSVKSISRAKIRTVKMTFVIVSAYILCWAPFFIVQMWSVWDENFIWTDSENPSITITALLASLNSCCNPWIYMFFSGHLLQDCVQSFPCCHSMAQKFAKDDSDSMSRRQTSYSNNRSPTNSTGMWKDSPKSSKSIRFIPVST

Row | IC50 [2] | Compound | MAX % Inhibition ([1]; 10 mg/kg i.v.) | Time of max % inhibition ([1]; 10 mg/kg i.v.) | MAX % Inhibition ([1]; 10 mg/kg p.o.) | Time of max % inhibition ([1]; 10 mg/kg p.o.) | MAX % Inhibition ([1]; 30 mg/kg i.v.) | Time of max % inhibition ([1]; 30 mg/kg i.v.)
1 | 26 nM | Cc1ccccc1C(=O)N(CN(C)C)c1ccc(C(=O)N2Cc3ccccc3Cc3ccccc32)cc1 [Example 267, N-[4-[(6,11-Dihydro-5H-dibenz[b,e]azepin-5-yl)-carbonyl]phenyl]-N-[(dimethylamino)methyl]-2-methylbenzamide] | 74% | 120 min |  |  |  | 
2 | 150 nM | Cc1ccccc1C(=O)Nc1ccc(C(=O)N2Cc3ccccc3Cc3ccccc32)cc1 [Example 2, N-[4-[(6,11-Dihydro-5H-dibenz[b,e]azepin-5-yl)carbonyl]phenyl]-2-methylbenzamide] |  |  | 65% | 180 min |  | 

More lines, now with the values behind:

Row | Compound | IC50 [2] | MAX % Inhibition ([1]; 10 mg/kg i.v.) | Time of max % inhibition ([1]; 10 mg/kg i.v.) | MAX % Inhibition ([1]; 10 mg/kg p.o.) | Time of max % inhibition ([1]; 10 mg/kg p.o.) | MAX % Inhibition ([1]; 30 mg/kg i.v.) | Time of max % inhibition ([1]; 30 mg/kg i.v.)
3 | Cc1ccccc1C(=O)Nc1ccc(C(=O)N2CCc3cn(C)nc3-c3ccccc32)cc1 [Example 379, N-[4-[(4,5-Dihydro-2-methylpyrazolo[4,3-d][1]-benzazepin-6(2H)-yl)carbonyl]phenyl]-2-methylbenzamide] | 250 nM | 75% | 300 min |  |  |  | 
4 | O=C(Nc1ccc(C(=O)N2Cc3ccccc3Cc3ccccc32)cc1)C1CC=CCC1 (stereo not drawn) [Example 255, N-[4-[(6,11-Dihydro-5H-dibenz[b,e]azepin-5-yl)-carbonyl]phenyl]-3-cyclohexene-1-carboxamide] | 27 nM | 65% | 60 min |  |  |  | 
5 | Cc1ccccc1C(=O)Nc1ccc(C(=O)N2Cc3ccccc3Cc3ccccc32)c(Cl)c1 [Example 260, N-[4-[(6,11-Dihydro-5H-dibenz[b,e]azepin-5-yl)-carbonyl]-3-chlorophenyl]-2-methylbenzamide] | 120 nM |  |  |  |  | 79% | 120 min
6 | Cc1ncc2c(n1)-c1ccccc1N(C(=O)c1ccc(NC(=O)c3ccccc3C)cc1)CC2 [Example 416, N-[4-[(6,7-Dihydro-2-methyl-5H-pyrimido[5,4-d][1]-benzazepin-7-yl)carbonyl]phenyl]-2-methylbenzamide] | 34500 nM |  |  |  |  | 44% | 90 min
